Source: patent publication US9783536B2, “Nitrogen-containing heterocyclic compound or salt thereof” (FUJIFILM Corporation, priority 2013, dated 2017)
Where a name gives a salt, the structure may show the parent alone. Read-outs that look alike come from different tables or passages of the source.

What was measured:
human PI3Kα protein = molecular target: T1, human PI3Kα protein (Homo sapiens, UniProt P42336); assay: PI3Kα enzyme assay (ADP-Glo); format: biochemical; conditions: read-out: PI3Kα enzyme inhibitory activity
T1 construct: purchased Carna Biosciences, Inc; host or cells: baculovirus expression system
T1 sequence (P42336 whole entry): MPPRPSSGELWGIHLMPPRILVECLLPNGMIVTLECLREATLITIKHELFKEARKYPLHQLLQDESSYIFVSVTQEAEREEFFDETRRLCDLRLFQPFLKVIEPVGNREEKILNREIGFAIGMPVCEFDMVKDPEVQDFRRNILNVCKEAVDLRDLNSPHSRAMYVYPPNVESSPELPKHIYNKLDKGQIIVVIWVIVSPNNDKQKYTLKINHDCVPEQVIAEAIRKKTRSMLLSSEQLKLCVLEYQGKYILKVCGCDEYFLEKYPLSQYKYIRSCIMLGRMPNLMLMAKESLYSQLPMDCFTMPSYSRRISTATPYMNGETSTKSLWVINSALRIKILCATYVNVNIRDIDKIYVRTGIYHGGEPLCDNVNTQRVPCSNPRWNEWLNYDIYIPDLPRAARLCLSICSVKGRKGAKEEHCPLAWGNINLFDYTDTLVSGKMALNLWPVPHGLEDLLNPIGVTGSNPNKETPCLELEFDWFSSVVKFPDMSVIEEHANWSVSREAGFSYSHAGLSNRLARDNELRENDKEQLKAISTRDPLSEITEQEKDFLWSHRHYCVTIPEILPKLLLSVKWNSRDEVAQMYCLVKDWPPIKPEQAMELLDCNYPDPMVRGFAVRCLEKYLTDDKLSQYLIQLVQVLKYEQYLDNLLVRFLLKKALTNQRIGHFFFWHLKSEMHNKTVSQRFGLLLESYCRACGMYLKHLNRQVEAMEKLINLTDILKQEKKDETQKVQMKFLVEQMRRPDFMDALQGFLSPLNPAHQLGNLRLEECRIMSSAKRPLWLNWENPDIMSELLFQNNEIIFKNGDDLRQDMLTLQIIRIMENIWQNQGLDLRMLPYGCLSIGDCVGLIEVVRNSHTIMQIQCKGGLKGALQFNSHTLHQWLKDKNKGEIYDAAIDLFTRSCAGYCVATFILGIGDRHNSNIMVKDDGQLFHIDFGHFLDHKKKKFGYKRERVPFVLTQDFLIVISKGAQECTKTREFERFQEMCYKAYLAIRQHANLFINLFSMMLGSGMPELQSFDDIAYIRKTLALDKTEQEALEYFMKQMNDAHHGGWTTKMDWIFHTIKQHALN
T1 sequence (P27986 whole entry partner): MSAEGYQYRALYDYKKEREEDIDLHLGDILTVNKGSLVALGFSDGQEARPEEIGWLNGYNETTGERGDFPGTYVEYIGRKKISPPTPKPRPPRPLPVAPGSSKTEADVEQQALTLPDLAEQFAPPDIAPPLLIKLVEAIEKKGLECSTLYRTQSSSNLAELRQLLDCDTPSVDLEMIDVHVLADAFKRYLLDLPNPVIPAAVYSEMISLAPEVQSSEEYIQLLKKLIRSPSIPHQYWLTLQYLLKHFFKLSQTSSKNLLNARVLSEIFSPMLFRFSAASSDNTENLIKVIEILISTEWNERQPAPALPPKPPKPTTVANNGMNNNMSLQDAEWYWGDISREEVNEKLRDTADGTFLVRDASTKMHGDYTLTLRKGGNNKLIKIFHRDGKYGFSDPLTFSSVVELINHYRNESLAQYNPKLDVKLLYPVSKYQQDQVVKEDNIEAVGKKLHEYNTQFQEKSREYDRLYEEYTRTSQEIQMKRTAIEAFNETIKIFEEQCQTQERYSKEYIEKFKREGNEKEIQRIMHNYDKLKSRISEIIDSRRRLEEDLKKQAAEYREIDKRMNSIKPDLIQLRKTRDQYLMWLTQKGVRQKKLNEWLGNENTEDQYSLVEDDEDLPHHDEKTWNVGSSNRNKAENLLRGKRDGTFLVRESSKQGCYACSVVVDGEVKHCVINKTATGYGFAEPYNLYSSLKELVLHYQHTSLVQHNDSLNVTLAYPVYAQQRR
Summary of the method: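 Biotinylated human PI3Kα (baculovirus-expressed, 4.5 nmol/L) pre-incubated 15 min with compound in Tris-HCl pH 7.5, MgCl2, BSA; reaction 60 min at 25° C with 50 μmol/L PIP2 and 100 μmol/L ATP final. ADP quantified by ADP-Glo luminescence; IC50 calculated.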

[1] = molecular target: T2, GST fusion human ERK2 protein (Homo sapiens, UniProt P28482); assay: ERK2 enzyme assay (1); format: biochemical; conditions: read-out: ERK2 enzyme inhibitory activity (1)
T2 construct: purchased Carna Biosciences, Inc; host or cells: E. coli expression system
T2 sequence (P28482 whole entry, the tested form may be a part): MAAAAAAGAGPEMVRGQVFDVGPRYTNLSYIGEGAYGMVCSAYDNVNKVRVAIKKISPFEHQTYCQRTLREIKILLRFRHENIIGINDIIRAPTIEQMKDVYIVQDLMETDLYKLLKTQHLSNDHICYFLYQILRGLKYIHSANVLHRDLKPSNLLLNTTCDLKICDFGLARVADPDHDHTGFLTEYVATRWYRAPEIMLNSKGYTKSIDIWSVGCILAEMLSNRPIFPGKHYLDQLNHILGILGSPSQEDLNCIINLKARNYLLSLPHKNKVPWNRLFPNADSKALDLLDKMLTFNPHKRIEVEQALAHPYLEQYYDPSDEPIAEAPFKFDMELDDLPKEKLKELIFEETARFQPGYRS
Summary of the method: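 Enzyme (2.5 nmol/L, E. coli-expressed) preincubated with compound 15 min at room temperature in HEPES/MgCl2/DTT/Brij35 buffer, pH 7.5; reaction with 4.25 μmol/L FL-Peptide 8 and 43.1 μmol/L ATP for 120 min at 25 °C. Phosphorylated peptide fraction quantified by mobility-shift separation after EDTA stop; IC50 calculated.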

[2] = 4.5 nmol/L PI3Kα, PIP2 50 μmol/L, ATP 100 μmol/L
[3] = 2.5 nmol/L ERK2, ATP 43.1 μmol/L

CN(C)Cc1nnc(Nc2ccc3ncc(-c4cnn(C)c4)cc3n2)s1 [Example 0166, 5-((Dimethylamino)methyl)-N-(7-(1-methyl-1H-pyrazol-4-yl)-1,5-naphthyridin-2-yl)-1,3,4-thiadiazole-2-amine]
IC50 (human PI3Kα protein; [2]): 1 to 10 µM | IC50 [1, 3]: < 1 µM

CCCCCc1nnc(Nc2ccc3ncc(-c4cnn(C)c4)cc3n2)[nH]1 [Example 0299, 7-(1-methyl-1H-pyrazol-4-yl)-N-(5-pentyl-4H-1,2,4-triazol-3-yl)-1,5-naphthyridine-2-amine]
IC50 (human PI3Kα protein): 10 to 50 µM | IC50 ([1]; ERK2 enzyme assay (1)): < 1 µM

Cn1cc(-c2cnc3ccc(Nc4nnc(S(=O)(=O)NCc5ccccc5)s4)nc3c2)cn1 [Example 0192, N-benzyl-5-((7-(1-methyl-1H-pyrazol-4-yl)-1,5-naphthyridin-2-yl)amino)-1,3,4-thiadiazole-2-sulfonamide sodium salt]
IC50 (human PI3Kα protein; [2]): < 1 µM | IC50 [1, 3]: < 1 µM

O=C(c1ccc(Nc2cnc3ccc(Nc4nnc(C5CCCC5)s4)nc3c2)cn1)N1CCOCC1 [Example 0106]
IC50 (human PI3Kα protein; [2]): < 1 µM | IC50 [1, 3]: < 1 µM

CC(C)Oc1cncc(Nc2cnc3ccc(Nc4nnc(C5CCCC5)s4)nc3c2)c1 [Example 0100]
IC50 (human PI3Kα protein; [2]): 1 to 10 µM | IC50 [1, 3]: < 1 µM

CN(c1nnc(Nc2ccc3ncc(-c4cnn(C)c4)cc3n2)s1)S(=O)(=O)c1ccccc1 [Example 0190]
IC50 (human PI3Kα protein; [2]): 1 to 10 µM | IC50 [1, 3]: < 1 µM

COc1ncccc1Nc1cnc2ccc(Nc3nnc(C4CCCC4)s3)nc2c1 [Example 0077]
IC50 (human PI3Kα protein; [2]): 1 to 10 µM | IC50 [1, 3]: 1 to 10 µM

c1cnnc(Nc2cnc3ccc(Nc4nnc(C5CCCC5)s4)nc3c2)c1 [Example 0224, N^2-(5-cyclopentyl-1,3,4-thiadiazol-2-yl)-N^7-(pyridazin-3-yl)-1,5-naphthyridine-2,7-diamine]
IC50 (human PI3Kα protein): < 1 µM | IC50 ([1]; ERK2 enzyme assay (1)): < 1 µM

c1nc2ccc(Nc3nnc(C4CCCC4)s3)nc2cc1N1CCNCC1 [Example 0055]
IC50 (human PI3Kα protein; [2]): 1 to 10 µM | IC50 [1, 3]: < 1 µM

COc1ccc(-c2cnc3ccc(Nc4nccs4)nc3c2)cc1OC [Example 0023, N-(7-(3,4-dimethoxyphenyl)-1,5-naphthyridin-2-yl)thiazole-2-amine]
IC50 (human PI3Kα protein; [2]): 1 to 10 µM | IC50 [1, 3]: 1 to 10 µM

COc1ccc(Nc2cnc3ccc(Nc4nnc(C5CCCC5)s4)nc3c2)cn1 [Example 0067]
IC50 (human PI3Kα protein; [2]): < 1 µM | IC50 [1, 3]: < 1 µM

c1cc(Nc2cnc3ccc(Nc4nnc(C5CCCC5)s4)nc3c2)ncn1 [Example 0210]
IC50 (human PI3Kα protein): < 1 µM | IC50 ([1]; ERK2 enzyme assay (1)): < 1 µM

CCc1cnnc(Nc2ccc3ncc(-c4cnn(CCCN5CCOCC5)c4)cc3n2)c1 [Example 0178, N-(5-ethylpyridazin-3-yl)-7-(1-(3-morpholinopropyl)-1H-pyrazol-4-yl)-1,5-naphthyridine-2-amine]
IC50 (human PI3Kα protein; [2]): < 1 µM | IC50 [1, 3]: < 1 µM

CS(=O)(=O)N1CCCC(Nc2cnc3ccc(Nc4nnc(C5CCCC5)s4)nc3c2)C1 (stereo not drawn) [Example 0109]
IC50 (human PI3Kα protein; [2]): < 1 µM | IC50 [1, 3]: 1 to 10 µM

COc1cc(-c2ccnc3ccc(Nc4nnc(C(C)C)s4)nc23)ccn1 [Example 0280]
IC50 (human PI3Kα protein): 10 to 50 µM | IC50 ([1]; ERK2 enzyme assay (1)): 1 to 10 µM

CCOC(=O)C1CCN(c2cnc3ccc(Nc4nnc(C5CCCC5)s4)nc3c2)CC1 [Example 0057]
IC50 (human PI3Kα protein; [2]): 10 to 50 µM | IC50 [1, 3]: 1 to 10 µM

CC(C)c1nnc(Nc2ccc3nccc(-c4cnn(C)c4)c3n2)s1 [Example 0273]
IC50 (human PI3Kα protein): < 1 µM | IC50 ([1]; ERK2 enzyme assay (1)): < 1 µM

Cc1nnc(Nc2ccc3ncc(Nc4cn[nH]c4)cc3n2)s1 [Example 0182]
IC50 (human PI3Kα protein; [2]): 1 to 10 µM | IC50 [1, 3]: < 1 µM

c1nc2ccc(Nc3nnc(CN4CCOCC4)s3)nc2cc1-c1cnn(CCCN2CCCC2)c1 [Example 0255, 5-(morpholinomethyl)-N-(7-(1-(3-(pyrrolidin-1-yl)propyl)-1H-pyrazol-4-yl)-1,5-naphthyridin-2-yl)-1,3,4-thiadiazole-2-amine]
IC50 (human PI3Kα protein): 1 to 10 µM | IC50 ([1]; ERK2 enzyme assay (1)): < 1 µM

CC(C)c1cnnc(Nc2ccc3ncc(-c4cn[nH]c4)cc3n2)c1 [Example 0153]
IC50 (human PI3Kα protein; [2]): 1 to 10 µM | IC50 [1, 3]: < 1 µM

CCc1nn(CCCN2CCOCC2)cc1-c1cnc2ccc(Nc3cc(C(C)C)cnn3)nc2c1 [Example 0385, 7-(3-ethyl-1-(3-morpholinopropyl)-1H-pyrazol-4-yl)-N-(5-isopropylpyridazin-3-yl)-1,5-naphthyridine-2-amine]
IC50 (human PI3Kα protein): < 1 µM | IC50 ([1]; ERK2 enzyme assay (1)): < 1 µM

CC(C)c1nnc(Nc2ccc3nccc(Nc4ccncn4)c3n2)s1 [Example 0007]
IC50 (human PI3Kα protein; [2]): < 1 µM | IC50 [1, 3]: < 1 µM

Cn1cc(-c2cnc3ccc(Nc4nnc(CCc5ccccc5)s4)nc3c2)cn1 [Example 0171, N-(7-(1-methyl-1H-pyrazol-4-yl)-1,5-naphthyridin-2-yl)-5-phenethyl-1,3,4-thiadiazole-2-amine]
IC50 (human PI3Kα protein; [2]): 10 to 50 µM | IC50 [1, 3]: < 1 µM

Cc1cc(Nc2ccc3ncc(-c4cnn(C)c4)cc3n2)n[nH]1 [Example 0277, N-(5-methyl-1H-pyrazol-3-yl)-7-(1-methyl-1H-pyrazol-4-yl)-1,5-naphthyridine-2-amine]
IC50 (human PI3Kα protein): 1 to 10 µM | IC50 ([1]; ERK2 enzyme assay (1)): 1 to 10 µM

CC(C)c1cnnc(Nc2ccc3ncc(N4CCOCC4)cc3n2)c1 [Example 0392, N-(5-isopropylpyridazin-3-yl)-7-morpholino-1,5-naphthyridine-2-amine]
IC50 (human PI3Kα protein): < 1 µM | IC50 ([1]; ERK2 enzyme assay (1)): < 1 µM

CC(C)Cc1cnc(Nc2ccc3ncc(-c4cnn(CCCN5CCCC5)c4)cc3n2)s1 [Example 0144]
IC50 (human PI3Kα protein; [2]): < 1 µM | IC50 [1, 3]: < 1 µM

CC(C)c1nnc(Nc2ccc3ncc(-c4cn(C)nc4-c4ccccn4)cc3n2)s1 [Example 0136, 5-isopropyl-N-(7-(1-methyl-3-(pyridin-2-yl)-1H-pyrazol-4-yl)-1,5-naphthyridin-2-yl)-1,3,4-thiadiazole-2-amine]
IC50 (human PI3Kα protein; [2]): < 1 µM | IC50 [1, 3]: < 1 µM

Cn1cc(-c2cnc3ccc(Nc4nccs4)nc3c2)cn1 [Example 0029]
IC50 (human PI3Kα protein; [2]): < 1 µM | IC50 [1, 3]: < 1 µM

c1nc2ccc(Nc3nnc(C4CCCC4)s3)nc2cc1C1CCNCC1 [Example 0332, 5-Cyclopentyl-N-(7-(piperidin-4-yl)-1,5-naphthyridin-2-yl)-1,3,4-thiadiazole-2-amine hydrochloride]
IC50 (human PI3Kα protein): 10 to 50 µM | IC50 ([1]; ERK2 enzyme assay (1)): < 1 µM

CC(C)c1cnnc(Nc2ccc3ncc(-c4cn(C)nc4CO)cc3n2)c1 [Example 0394, (4-(6-((5-isopropylpyridazin-3-yl)amino)-1,5-naphthyridin-3-yl)-1-methyl-1H-pyrazol-3-yl)methanol]
IC50 (human PI3Kα protein): < 1 µM | IC50 ([1]; ERK2 enzyme assay (1)): < 1 µM

COC[C@H]1CCCN1c1cnc2ccc(Nc3nnc(C4CCCC4)s3)nc2c1 [Example 0062]
IC50 (human PI3Kα protein; [2]): 1 to 10 µM | IC50 [1, 3]: < 1 µM

c1cc(-c2ccnc3ccc(Nc4nncs4)nc23)ccn1 [Example 0275]
IC50 (human PI3Kα protein): < 1 µM | IC50 ([1]; ERK2 enzyme assay (1)): < 1 µM

Cn1cc(-c2cnc3ccc(Nc4nnc(NS(C)(=O)=O)s4)nc3c2)cn1 [Example 0187, N-(5-((7-(1-methyl-1H-pyrazol-4-yl)-1,5-naphthyridin-2-yl)amino)-1,3,4-thiadiazol-2-yl)methane sulfonamide]
IC50 (human PI3Kα protein; [2]): < 1 µM | IC50 [1, 3]: < 1 µM

CC(C)c1nnc(Nc2ccc3nccc(N4CCOCC4)c3n2)s1 [Example 0286, 5-isopropyl-N-(8-morpholino-1,5-naphthyridin-2-yl)-1,3,4-thiadiazole-2-amine]
IC50 (human PI3Kα protein): 1 to 10 µM | IC50 ([1]; ERK2 enzyme assay (1)): 1 to 10 µM

C1=C(c2cnc3ccc(Nc4nnc(C5CCCC5)s4)nc3c2)CCNC1 [Example 0330, 5-cyclopentyl-N-(7-(1,2,3,6-tetrahydropyridin-4-yl)-1,5-naphthyridin-2-yl)-1,3,4-thiadiazole-2-amine hydrochloride]
IC50 (human PI3Kα protein): 1 to 10 µM | IC50 ([1]; ERK2 enzyme assay (1)): < 1 µM

CC(C)c1nnc(Nc2ccc3nccc(-c4ccccn4)c3n2)s1 [Example 0281, 5-isopropyl-N-(8-(pyridin-2-yl)-1,5-naphthyridin-2-yl)-1,3,4-thiadiazole-2-amine]
IC50 (human PI3Kα protein): 1 to 10 µM | IC50 ([1]; ERK2 enzyme assay (1)): 1 to 10 µM

CC(=O)N1CCC(Nc2cnc3ccc(Nc4nnc(C5CCCC5)s4)nc3c2)C1 (stereo not drawn) [Example 0065]
IC50 (human PI3Kα protein; [2]): 1 to 10 µM | IC50 [1, 3]: < 1 µM

Cc1cnnc(Nc2ccc3ncc(-c4cn[nH]c4)cc3n2)c1 [Example 0154]
IC50 (human PI3Kα protein; [2]): 1 to 10 µM | IC50 [1, 3]: < 1 µM

Cc1ncc(Nc2cnc3ccc(Nc4nnc(C5CCCC5)s4)nc3c2)cc1-n1nccn1 [Example 0074]
IC50 (human PI3Kα protein; [2]): < 1 µM | IC50 [1, 3]: < 1 µM

COc1ccc(-c2cnc3ccc(Nc4ncc(C)s4)nc3c2)cc1OC [Example 0022, N-(7-(3,4-dimethoxyphenyl)-1,5-naphthyridin-2-yl)-5-methylthiazole-2-amine]
IC50 (human PI3Kα protein; [2]): 1 to 10 µM | IC50 [1, 3]: 10 to 50 µM

CC(C)c1cnnc(Nc2ccc3ncc(-c4cccnc4)cc3n2)c1 [Example 0407]
IC50 (human PI3Kα protein): 1 to 10 µM | IC50 ([1]; ERK2 enzyme assay (1)): < 1 µM

COc1ccccc1Nc1cnc2ccc(Nc3nnc(C4CCCC4)s3)nc2c1 [Example 0219, N^2-(5-cyclopentyl-1,3,4-thiadiazol-2-yl)-N^7-(2-methoxyphenyl)-1,5-naphthyridine-2,7-diamine]
IC50 (human PI3Kα protein): 10 to 50 µM | IC50 ([1]; ERK2 enzyme assay (1)): 1 to 10 µM

O[C@@H]1CCN(c2cnc3ccc(Nc4nnc(C5CCCC5)s4)nc3c2)C1 [Example 0313]
IC50 (human PI3Kα protein): 1 to 10 µM | IC50 ([1]; ERK2 enzyme assay (1)): < 1 µM

COc1cc(-c2cnc3ccc(Nc4nnc(C5CCCC5)s4)nc3c2)ccc1O [Example 0202]
IC50 (human PI3Kα protein): 10 to 50 µM | IC50 ([1]; ERK2 enzyme assay (1)): < 1 µM

CC(C)c1cnnc(Nc2ccc3ncc(-c4cnn(CCCN5CCC5)c4)cc3n2)c1 [Example 0371]
IC50 (human PI3Kα protein): < 1 µM | IC50 ([1]; ERK2 enzyme assay (1)): < 1 µM
